Measured values from publication PMC11874377, “Fungal-derived methyldeoxaphomins target Plasmodium falciparum segregation through the inhibition of PfActin1” (Proceedings of the National Academy of Sciences of the …, 2025).
Where two headings read alike, the source gives them in different places.

Tests used:
[1] = test system: in vitro evolved NPDG-F-resistant Dd2-Pol δ clones (PfActin1 mutations); assay: Resistant parasite phenotyping and cross resistance, SYBR green I EC50 assay, NPDG-F-resistant clones; format: cell-based, Plasmodium falciparum; conditions: for EC50: Plasmodium falciparum, read-out: EC50 (mean ± SEM)
Protocol: Cloning by limiting dilution was then performed to isolate individual lines from the bulk population. Due to the multiple mutations identified in the first biological replicate, we isolated four clones from this bulk culture as compared to two clones each from the second and third replicates. These clones were phenotyped via a SYBR green I-based dose–response assay (Table 2 and Fig. 2B). […] The DNA of these clones was then extracted and subjected to whole-genome sequencing.
To investigate whether NPDG-F has the same mode of action as cytochalasin D, we tested our clones for sensitivity to both cytochalasin D and jasplakinolide.
Resistant parasite phenotyping and cross resistance measurement
The EC50 assay was performed at 1% parasitemia, 1% hematocrit with SYBR green I in 96-well plates. The highest final concentration of the methyldeoxaphomin NPDG-F was set at 100 μM. Briefly, the compound was subjected to a 3-fold serial dilution with ten dilution points. Three technical replicates were set up at each dilution point. The Dd2-Pol δ parent line and the resistant parasites at 2% hematocrit and 1% parasitemia were added to the drug media at 1:1 ratio. The plate was incubated at 37°C for 72 hours in a chamber filled with a hypoxic gas mixture (3% oxygen, 5% carbon dioxide, and 92% nitrogen). After incubation, the cells were lysis with lysis buffer (20 mM Tris-HCL, 0.08% saponin, 5 mM EDTA, and 0.8% Triton X-100) containing SYBR green I (10,000X, Thermo Fisher, cat # S7563) overnight. Fluorescence was measured at 485nm excitation and 530nm emission using a PHERAstar FSX plate reader (BMG Labtech, Germany). Dose response curves were graphed with Prism 9 Version 9.5.1. […]

[2] = test system: human HepG2 hepatoma cells; assay: cells; format: cell-based; conditions: for EC50: Homo sapiens
Protocol: The antiplasmodial activity of these analogs was assessed in P. falciparum asexual blood stage using a SYBR Green I-based assay. Compounds were tested in both the multidrug resistant line Dd2, and the chloroquine-sensitive line 3D7, to probe any potential for preexisting resistance. […] These methyldeoxaphomin analogs were also cross-screened for cytotoxicity in the human cell line HepG2 to determine their selectivity for the Plasmodium parasite. […] This effect was maintained with analog NPDG-F where both R1 and R2 were substituted with OH groups. […] In addition, the hydroxyl group at carbon 7 seems to be critical for function as a drastic loss of potency was found in NPDG-D as compared to B and C. […]
Cytotoxicity was assessed using an MTS (3-(4,5-Dimethylthiazol-2-yl)-5-(3-carboxymethoxyphenyl)-2-(4-sulfophenyl)-2H-tetrazolium) absorbance assay with human HepG2 hepatoma cells. Cells were maintained in MEM supplemented with 10%FBS, 1% Antibiotic/Antimycotic, 1 mM sodium pyruvate, and 0.15% sodium bicarbonate in a 5 % CO2, 95% air environment at 37°C. For the assay cells were seeded at a density of 2,250 cells per well on 384-well microtiter plates 24 h prior to compound addition. Following a 48-h incubation with compounds, MTS solution was added to wells and absorbance was read after 2-4 h on a Synergy Neo2 multimode reader (BioTek Winsooki, VT). Compound dose response curves and EC50 determination was performed using CDD Vault normalized to 5% triton and vehicle controls. […]

[3] = test system: Plasmodium falciparum Dd2-Pol δ; assay: In vitro evolution of resistance, bulk culture populations; format: cell-based; conditions: after selection from 90 nM to 17 μM over 6.3 mo
Protocol: We next sought to identify the molecular target of NPDG-F using in vitro evolution in a hypermutator line Dd2-Pol δ. This line was created to facilitate faster resistance development through the modification of the catalytic residues in DNA polymerase δ via CRISPR-Cas9 ([13]). Three populations of parasites grown in parallel were exposed to increasing concentrations of NPDG-F from the initial 90 nM to a final concentration of 17 μM over 6.3 mo. Once resistance (~4.2-fold) was identified in the 3 bulk culture populations, parasite DNA was extracted, followed by library preparation and whole-genome sequencing. […]
The in vitro evolution was conducted using Plasmodium falciparum Dd2-Pol δ. […] Every 2 or 3 days, parasitemia was determined via Giemsa smear and reset to 2% (for a 3-day split, 1.6 X108 parasites) or 3% (for a 2-day split, 2.4 X108). […] Resistance development was monitored every 3 months through SYBR green I- based EC50 dose response assay as described above. […]
Parasite genomic DNA was extracted from the parent and the resistant lines using DNeasy Blood & Tissue Kit (Qiagen). […] The pooled libraries were sequenced on Illumina NovaSeq 6000 with S4 200 chemistry to generate paired end reads with 100bp in length.
Reads were aligned to Plasmodium falciparum reference genome 3D7 (PlasmoDB v13.0) using an in-house pipeline (Cowell & Winzeler, 2019). […]

Structure (SMILES): C=C1C(C)C2C(Cc3ccccc3)NC(=O)C23C(=O)C=CC(O)C(O)C(C)CC(C)CC=CC3C1O (stereo not drawn) [Methyldeoxaphomin NPDG-F]
- average EC50 shift, clones from flasks 2 and 3 ([1]; A136S): 3.5 fold
- average EC50 shift, clones from flask 1 ([1]; A171V/S and I290L clones): 2.6 fold
- EC50 ([1]; DD2, clone 1-C7, A171S (8%), A171V (92%), I290L): 11.5 µM
- EC50 ([1]; DD2, clone 1-D6, A171S (3%), A171V (97%), I290L): 7.79 µM
- EC50 ([1]; DD2, clone 1-D7, A171S (22%), A171V (78%), I290L): 9.02 µM
- EC50 ([1]; DD2, clone 1-F3, A171S (4%), A171V (96%), I290L): 7.04 µM
- EC50 ([1]; DD2, clone 2-C4, A136S): 14.1 µM
- EC50 ([1]; DD2, clone 2-F5, A136S): 10.2 µM
- EC50 ([1]; DD2, clone 3-C3, A136S): 12.7 µM
- EC50 ([1]; DD2, clone 3-C5, A136S): 10 µM
- Fold change ([1]; clone 1-C7 vs Dd2-Pol δ parent): 3.3
- Fold change ([1]; clone 1-D6 vs Dd2-Pol δ parent): 2.3
- Fold change ([1]; clone 1-D7 vs Dd2-Pol δ parent): 2.6
- Fold change ([1]; clone 1-F3 vs Dd2-Pol δ parent): 2.1
- Fold change ([1]; clone 2-C4 vs Dd2-Pol δ parent): 4.1
- Fold change ([1]; clone 2-F5 vs Dd2-Pol δ parent): 3.0
- Fold change ([1]; clone 3-C3 vs Dd2-Pol δ parent): 3.7
- Fold change ([1]; clone 3-C5 vs Dd2-Pol δ parent): 2.9
- cytotoxicity in HepG2 at the highest concentration tested ([2]; 25 µM): no signs of cytotoxicity
- Selectivity Index (SI) ([2]; HepG2 EC50/(mean of Dd2 EC50, 3D7 EC50)): > 60
- EC50 ([2]; HepG2, 48 h, means from triplicate experiments ± SEM, 48-h incubation, read-out: HepG2 EC50): > 25 µM
- EC50 ([2]; HepG2, average ± SEM of three replicates, read-out: HepG2: Average EC50): > 25 µM
- EC50 ([2]; HepG2, individual replicates, read-out: HepG2: EC50): > 25 µM
- resistance in the 3 bulk culture populations [3]: ~ 4.2 fold
